Measured values taken from patent US20100267561A1, “HERBICIDAL PYRIDAZINONE DERIVATIVES” (priority 2007, published 2010).

Tests used:
Assay in all cases: Test B pre-/postemergence plant response
Assay type in all cases: in vivo
[1] = test system: johnsongrass (Sorghum halepense)
Procedure, shortened: (§1)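 Preemergence and postemergence (plants 2-18 cm, 1- to 4-leaf stage) applications used test chemicals in a non-phytotoxic solvent with surfactant. Plants were held in a greenhouse 13 to 15 days, then rated visually against controls on a 0-100 scale (0 no effect, 100 complete control).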

[2] = test system: common ragweed (Ambrosia elation)
Procedure, shortened: as §1

[3] = test system: blackgrass (Alopecurus myosuroides)
Procedure, shortened: as §1

[4] = test system: catchweed bedstraw (Galium aparine); settings: Preemergence
Procedure, shortened: as §1

kochia (Kochia scoparia) = test system: kochia (Kochia scoparia)
Procedure, shortened: as §1

[5] = test system: goosegrass (Eleusine indica)
Procedure, shortened: as §1

[6] = test system: large crabgrass (Digitaria sanguinalis)
Procedure, shortened: as §1

wild oat (Avena fatua) = test system: wild oat (Avena fatua)
Procedure, shortened: as §1

[7] = test system: woolly cupgrass (Eriochloa villosa)
Procedure, shortened: as §1

[8] = test system: yellow nutsedge (Cyperus esculentus)
Procedure, shortened: as §1

[9] = test system: cocklebur (Xanthium strumarium)
Procedure, shortened: as §1

[10] = test system: velvetleaf (Abutilon theophrasti)
Procedure, shortened: as §1

corn (Zea mays) = test system: corn (Zea mays)
Procedure, shortened: as §1

[11] = Postemergence, 31 g ai/ha, scale 0 to 100, 0 no effect, 100 complete control
[12] = Postemergence, 62 g ai/ha, scale 0 to 100
[13] = Preemergence, 31 g ai/ha, 0 to 100 scale, 0 no effect, 100 complete control
[14] = Preemergence, 62 g ai/ha, scale 0 to 100
[15] = Preemergence, 125 g ai/ha, scale 0 to 100
[16] = Preemergence, 250 g ai/ha, scale 0 to 100
[17] = Postemergence, 125 g ai/ha, scale 0 to 100
[18] = Postemergence, 250 g ai/ha, scale 0 to 100

## Cc1cc(-c2ccc(Br)cc2)nn1-c1c(OC(=O)OC(C)C)cnn(C)c1=O [Compound 6]
[1]; [11]
  Plant response rating, Johnsongrass: 0
[1]; [12]
  Plant response rating, Johnsongrass: 0
[1]; [13]
  Plant response rating, Johnsongrass: 60
[1]; [14]
  Plant response rating, Johnsongrass: 90
[1]; [15]
  Plant response rating, Johnsongrass: 95
[1]; [16]
  Plant response rating, Johnsongrass: 100
[2]; [11]
  Plant response rating, Ragweed: 0
[2]; [12]
  Plant response rating, Ragweed: 0
[2]; [17]
  Plant response rating, Ragweed: 0
[2]; [18]
  Plant response rating, Ragweed: 50
[2]; [13]
  Plant response rating, Ragweed: 0
[2]; [14]
  Plant response rating, Ragweed: 0
[2]; [15]
  Plant response rating, Ragweed: 20
[2]; [16]
  Plant response rating, Ragweed: 20
[3]; 250 g ai/ha, preemergence, 0-100 scale
  Blackgrass plant response rating: 100
[3]; [11]
  Plant response rating, Blackgrass: 100
[3]; [12]
  Plant response rating, Blackgrass: 100
[3]; [17]
  Plant response rating, Blackgrass: 100
[3]; [18]
  Plant response rating, Blackgrass: 100
[3]; [13]
  Plant response rating, Blackgrass: 80
[3]; [14]
  Plant response rating, Blackgrass: 100
[3]; [15]
  Plant response rating, Blackgrass: 100
[4]; 31 g ai/ha, 0 to 100 scale, 0 no effect, 100 complete control
  Plant response rating, Galium: 0
[4]; 125 g ai/ha, scale 0 to 100
  Plant response rating, Galium: 70
[4]; 250 g ai/ha, scale 0 to 100
  Plant response rating, Galium: 70
Kochia (Kochia scoparia); [11]
  Plant response rating, Kochia: 0
Kochia (Kochia scoparia); [12]
  Plant response rating, Kochia: 0
Kochia (Kochia scoparia); [17]
  Plant response rating, Kochia: 20
Kochia (Kochia scoparia); [18]
  Plant response rating, Kochia: 20
Kochia (Kochia scoparia); [13]
  Plant response rating, Kochia: 0
Kochia (Kochia scoparia); [14]
  Plant response rating, Kochia: 0
Kochia (Kochia scoparia); [15]
  Plant response rating, Kochia: 20
Kochia (Kochia scoparia); [16]
  Plant response rating, Kochia: 60
[5]; [11]
  Plant response rating, Goosegrass: 95
[5]; [12]
  Plant response rating, Goosegrass: 100
[5]; [17]
  Plant response rating, Goosegrass: 100
[5]; [18]
  Plant response rating, Goosegrass: 100
[5]; [13]
  Plant response rating, Goosegrass: 80
[5]; [14]
  Plant response rating, Goosegrass: 95
[5]; [15]
  Plant response rating, Goosegrass: 100
[5]; [16]
  Plant response rating, Goosegrass: 100
[6]; [11]
  Plant response rating, Crabgrass, Large: 100
[6]; [12]
  Plant response rating, Crabgrass, Large: 100
[6]; [17]
  Plant response rating, Crabgrass, Large: 100
[6]; [18]
  Plant response rating, Crabgrass, Large: 100
[6]; [13]
  Plant response rating, Crabgrass, Large: 98
[6]; [14]
  Plant response rating, Crabgrass, Large: 100
[6]; [15]
  Plant response rating, Crabgrass, Large: 100
[6]; [16]
  Plant response rating, Crabgrass, Large: 100
Wild oat (Avena fatua); [11]
  Plant response rating, Oat, Wild: 100
Wild oat (Avena fatua); [12]
  Plant response rating, Oat, Wild: 100
Wild oat (Avena fatua); [17]
  Plant response rating, Oat, Wild: 100
Wild oat (Avena fatua); [18]
  Plant response rating, Oat, Wild: 100
Wild oat (Avena fatua); [13]
  Plant response rating, Oat, Wild: 50
Wild oat (Avena fatua); [14]
  Plant response rating, Oat, Wild: 50
Wild oat (Avena fatua); [15]
  Plant response rating, Oat, Wild: 85
Wild oat (Avena fatua); [16]
  Plant response rating, Oat, Wild: 85
[7]; [11]
  Plant response rating, Cupgrass, Woolly: 100
[7]; [12]
  Plant response rating, Cupgrass, Woolly: 100
[7]; [17]
  Plant response rating, Cupgrass, Woolly: 100
[7]; [18]
  Plant response rating, Cupgrass, Woolly: 100
[7]; [13]
  Plant response rating, Cupgrass, Woolly: 85
[7]; [14]
  Plant response rating, Cupgrass, Woolly: 85
[7]; [15]
  Plant response rating, Cupgrass, Woolly: 85
[7]; [16]
  Plant response rating, Cupgrass, Woolly: 85
[8]; [11]
  Plant response rating, Nutsedge, Yellow: 0
[8]; [12]
  Plant response rating, Nutsedge, Yellow: 0
[8]; [17]
  Plant response rating, Nutsedge, Yellow: 0
[8]; [18]
  Plant response rating, Nutsedge, Yellow: 0
[8]; [13]
  Plant response rating, Nutsedge, Yellow: 0
[8]; [14]
  Plant response rating, Nutsedge, Yellow: 0
[8]; [15]
  Plant response rating, Nutsedge, Yellow: 0
[8]; [16]
  Plant response rating, Nutsedge, Yellow: 0
[9]; [11]
  Plant response rating, Cocklebur: 0
[9]; [12]
  Plant response rating, Cocklebur: 0
[9]; [17]
  Plant response rating, Cocklebur: 0
[9]; [18]
  Plant response rating, Cocklebur: 40
[9]; [13]
  Plant response rating, Cocklebur: 0
[9]; [14]
  Plant response rating, Cocklebur: 0
[9]; [15]
  Plant response rating, Cocklebur: 0
[9]; [16]
  Plant response rating, Cocklebur: 0
[10]; [11]
  Plant response rating, Velvetleaf: 0
[10]; [12]
  Plant response rating, Velvetleaf: 0
[10]; [17]
  Plant response rating, Velvetleaf: 0
[10]; [18]
  Plant response rating, Velvetleaf: 10
[10]; [13]
  Plant response rating, Velvetleaf: 0
[10]; [14]
  Plant response rating, Velvetleaf: 0
[10]; [15]
  Plant response rating, Velvetleaf: 0
[10]; [16]
  Plant response rating, Velvetleaf: 40
Corn (Zea mays); [11]
  Plant response rating, Corn: 95
Corn (Zea mays); [12]
  Plant response rating, Corn: 95
Corn (Zea mays); [17]
  Plant response rating, Corn: 100
Corn (Zea mays); [18]
  Plant response rating, Corn: 100
Corn (Zea mays); [13]
  Plant response rating, Corn: 95
Corn (Zea mays); [14]
  Plant response rating, Corn: 98
Corn (Zea mays); [15]
  Plant response rating, Corn: 98
Corn (Zea mays); [16]
  Plant response rating, Corn: 100
